# “Also recorded” adds a separate entry of the source.
# Test system: ovariectomized female Wistar rats (osteoporosis caused by estrogen deficiency)
# Experiment: Ovariectomized female rat model of osteoporosis caused by estrogen deficiency
# Type: in vivo
# Conditions: two months; for bone volume of proximal tibia vs OVX group: FIG. 1; for apparent bone density of tibia vs OVX group: FIG. 2; for erosion surface (ES/BS) of proximal tibia (bone resorption) vs OVX group: FIG. 3
# Description: The purpose of this example is to show the potency of bakuchiol in treating osteoporosis, wherein ovary of a female rat is removed to stimulate osteoporosis caused by estrogen deficiency.
# The female Wistar rats of 16 weeks old (unless specified in the other experiment description) were obtained from the stock reared by the Animal breeding center, National Scientific Council in Taipei. These rats were grouped by weights matched in order to distribute the physiological response variation from rats evenly into each group. These rats were grouping as follows: • Baseline group fed with no drug added food (n=8) • Sham operation group fed with no drug added food (Sham) (n=10) • Ovariectomy operation group fed with no drug added food (OVX) (n=8) • Ovariectomy operation group fed with Drug A (5 mg/kg) added food (OVX+A) (n=9) • Ovariectomy operation group fed with Drug B (15 mg/kg) added food (OVX+B) (n=9)
# Ovariectomy (removal of ovaries) operation: Ovariectomy was induced using a protocol similar to that described by Wronski et al (Wronski et al, Endocrinology, 123 (2), 681-686 ([…]))
# During the experiments, the rats were housed in hanging grid cages in groups of two at 21° C. with a 12 hours dark cycle. Food (Rat-mouse diet III, adequate in 1% of calcium content and 1.2% of phosphate content, Purina, USA) was administered by paired feeding between the experimental and control groups. Pair-feeding was carried out by calculating the average amount of food intake in the Sham group. So give the same amount of food to the OVX, OVX+A (5 mg/kg), OVX+B (15 mg/kg) group animals the following day. These animals were fed with a period of two months except for the baseline group which were killed on the very day of doing ovariectomy or sham operation. Rats of OVX+A and OVX+B groups were fed with the usual food chuck but added certain amount of compound A and B in it respectively. Water was given ad libitum to all rats.
# The test drug was weighted according to dose of 5 mg/kg and 15 mg/kg, and added into the usual food chuck powder and mixed with 10% starch paste. After fully mixed, these chuck powder were made into mass manually and dried by air flow oven. The food with added drug to rats was performed by single blind method.
# These labeling and bone histomorphometry assessment were done based on standard procedure in bone research (Lin et al, Calcif. Tissue Int., 67, 373-377 (2000)). Specimen were prestained with Villanueva bone stain, then […] embedded in London resin. Undecalcified sections of 7 μm thick were cut using Jung-K microtome (Leica Ltd, USA) and treated with Villanueva stain for observation under light microscopy. Seven μm thick unstained sections were prepared for fluorescent microscopy and assessed with program Osteomeasure (3.0 version, Atlanta, USA). The bone volume (FIG. 1) and eroded surface parameters (FIG. 3) were obtained according to Lin et al. (Lin et al, Calcif. Tissue Int., 67, 373-377 (2000)). The experiment was performed under specific project licences from the Animal Center and IAACU, National Defense Medical Center, National Defense University, Taipei, Taiwan.
# The whole tibia and femur were stripped off attached muscles and ligaments after sacrifice. An apparent bone density measurement was done based on Archimedes floating principle on an electronic balance set with densitometry frame (Danielsen et al., Calcif. Tissue Int., 52, 26-33 (1993)). The weight of bone measured in the air was marked as W-air. The weight of the same bone weighed in water will be marked as W-water. The apparent bone density was calculated as [W-air/(W-air minus W-water)](gm/cm^3) (FIG. 2, Bone apparent density of Tibia).
smiles,measurement,setting,value
"C=C[C@@](C)(/C=C/c1ccc(O)cc1)CCC=C(C)C [Bakuchiol, bakuchiol]",bone volume of proximal tibia vs OVX group,"OVX+A, 5 mg/kg in food",increase in the bone volume
same,apparent bone density of tibia vs OVX group,"OVX+A, 5 mg/kg in food",increase
same,erosion surface (ES/BS) of proximal tibia (bone resorption) vs OVX group,"OVX+A, 5 mg/kg in food, 5 mg/kg",inhibiting the bone resorption; also recorded: inhibition of bone erosion (bone resorption)
same,bone volume of proximal tibia vs OVX group,"OVX+B, 15 mg/kg in food",increase in the bone volume
same,apparent bone density of tibia vs OVX group,"OVX+B, 15 mg/kg in food",increase
same,erosion surface (ES/BS) of proximal tibia (bone resorption) vs OVX group,"OVX+B, 15 mg/kg in food",inhibition of bone erosion (bone resorption)
